Experimental data published in patent US7354912B2, “Unique compositions of zwitterionic phospholipids and bisphosphonates and use of the compositions as bisphosphate delivery systems with reduced GI toxicity” (Board of Reagents, University of Texas System, priority 2000, dated 2008).
Marks after values point to notes of the source that are not given here.

Experiments:
[1] = test system: gastric mucosa; assay: acute bisphosphonate/indomethacin gastric injury model of Blank et al. (gastric lesion score, gastric bleeding); type: in vivo, rat; settings: for Gastric Lesion Score (lesioned area, mm^2) / order of gastrotoxicity (FIG. 4): rats; for Gastric Lesion Score (lesioned area, mm^2): Indo 40 mg/kg, pamidronate 300 mg/kg, PC-pamidronate 1:1 weight ratio, n = 4-5 rats/group; for order of gastrotoxicity (FIG. 4): comparison of three bisphosphonates
From the text: (§1) The experiments investigated the effects of different bisphosphonates on the surface hydrophobicity and phospholipid concentration of the antral mucosa, using the animal model of Blank et. al. (Blank M A, Ems B L, Gibson G W, Myers W R, Berman S K, Phipps R J, Smith P N, Dig Dis Sci, 42, 281-288 (1997)), and compared the effects of these surface changes to the gastric toxicity of these drugs.
Looking at FIG. 2, an antrum lesion score is plotted against time.
The model and the ability for phospholipids to inhibit bisphosphonate GI toxicity was investigated in pilot preclinical studies using the rodent model of Blank et. al. (Blank M A, Ems B L, Gibson G W, Myers W R, Berman S K, Phipps R J, Smith P N, Dig Dis Sci, 42, 281-288 (1997)), where the bisphosphonate test drug was administered simultaneously with indomethacin.
60 mg of Phospholipon 90G (90-93% pure PC) was dissolved in chloroform in a tube. […] The organic solvent was removed under nitrogen and resulting PC material was left under vacuum overnight to form a PC film in the tube. […] The solution was then added to the dried PC film in the tube. The mixture was sonicated in a both type sonicator at room temperature for 5 min., prior to administration to fasted rats.
20 mg of dipalmitoyl PC (DPPC) and Phospholipon 90 G were dissolved in chloroform in separate tubes, and dried as described in Example 1.
60 mg and 240 mg of Phospholipon 90G were dissolved in chloroform and dried as described in Example 1 in separate tubes.

[2] = test system: gastric mucosa; settings: rats, intragastric high doses, with indomethacin; cited from earlier work
[3] = healthy subjects, up to 2 weeks, 40 mg or 10 mg; cited from earlier work
[4] = test system: aspirin-induced gastric erosions; settings: 10 mg and 40 mg doses; cited from earlier work
[5] = test system: gastric mucosa; assay: surface hydrophobicity and phospholipid (PC) concentration of the antral/gastric mucosa
From the text: as §1

[6] = test system: experimentally induced gastric ulcers; settings: rats; cited from earlier work
[7] = test system: mucosae of the gastric body and antrum; settings: increasing doses over a 4 week period in rats; macroscopic and histological; cited from earlier work
[8] = test system: gastric mucosa; assay: histological studies of gastric mucosa; settings: rat, in vivo

Compound: COc1ccc2c(c1)c(CC(=O)O)c(C)n2C(=O)c1ccc(Cl)cc1 [Indomethacin]
- Gastric Lesion Score (lesioned area, mm^2) [1]: 0 ± 0 mm^2

Compound: NCCC(O)(P(=O)(O)O)P(=O)(O)O [Pamidronate, 3-amino-1-hydroxypropylidene-1,1-bisphosphonic acid]
- gastric lesions (antrum lesion score, FIG. 2) ([1]; rat stomach, over a 4 hr period, in combination with indomethacin): induced lesions in both the antrum and body of the rat stomach
- order of gastrotoxicity (FIG. 4) [1]: pamidronate>>alendronate>risedronate
- Gastric Lesion Score (lesioned area, mm^2) [1]: 62 ± 11* mm^2
- irritation of the gastric mucosa (comparison of bisphosphonates) [2]: more irritating

Compound: NCCCC(O)(P(=O)(O)O)P(=O)(O)O [alendronate, 4-amino-1-hydroxybutylidene-1,1-bisphosphonic acid]
- volunteers who developed one or more gastric ulcers [3]: 10-20%
- volunteers with observable gastric erosions [3]: 40-60%
- rate of healing of aspirin-induced gastric erosions [4]: significantly retarded
- order of ability to attenuate the stomach's hydrophobic phospholipid barrier property (FIG. 5) ([5]; rat, in vivo): pamidronate>>alendronate>risedronate
- healing of experimentally induced gastric ulcers [6]: significantly delayed the healing
- injurious effect on mucosae of the gastric body and antrum [7]: dose-dependent injurious effect

Compound: CC(O)(P(=O)(O)O)P(=O)(O)O [etidronate, 1-hydroxyethylidene-1,1-bisphosphonic acid]
- injurious effect on mucosae of the gastric body and antrum [7]: dose-dependent injurious effect

Compound: O=P(O)(O)C(O)(Cc1cccnc1)P(=O)(O)O [risedronate, I-hydroxy-2-(3-pyridyl) ethylidene-1,(3-pyridyl) ethylidene-1,1-bisphosphonic acid]
- order of gastrotoxicity (FIG. 4) [1]: pamidronate>>alendronate>risedronate
- order of ability to attenuate the stomach's hydrophobic phospholipid barrier property (FIG. 5) ([5]; same order as gastrotoxicity maintained): pamidronate>>alendronate>risedronate
- surface injury to the gastric mucosa (histology) [8]: induced some surface injury
- injurious effect on mucosae of the gastric body and antrum [7]: dose-dependent injurious effect
